Where “and” joins values, the source holds several entries; their conditions need not be identical. Identical values can stand only once. Each block holds one molecule with its values, some of them ahead of it. Square brackets hold non-standard residues; d marks the D form. Ends that are not written are not given here. Peptide text beside a SMILES is read from it. pY = N[C@@H](Cc1ccc(OP(=O)(O)O)cc1)C(=O)O
Molecular target: T1, RasGAP^232 (p120RasGAP N-SH2, SH3, C-SH2, residues 174–444) (Homo sapiens, UniProt P20936, C236S/C261S/C372S/C402S)
T1 construct: (residues 174–444, termed RasGAP^232); hexahistidine (TEV-cleavable) (N, cleaved yes); made in house; host or cells: E. coli Rosetta (DE3)
T1 sequence (P20936 174-444 C236S/C261S/C372S/C402S): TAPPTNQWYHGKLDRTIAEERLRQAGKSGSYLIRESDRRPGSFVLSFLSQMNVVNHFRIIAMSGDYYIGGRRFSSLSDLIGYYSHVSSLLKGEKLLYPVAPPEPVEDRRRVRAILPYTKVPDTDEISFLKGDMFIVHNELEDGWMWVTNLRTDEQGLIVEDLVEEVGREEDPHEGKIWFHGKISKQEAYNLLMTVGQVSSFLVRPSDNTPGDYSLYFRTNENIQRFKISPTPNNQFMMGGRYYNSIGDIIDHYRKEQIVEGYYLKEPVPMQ
Assay: Isothermal titration calorimetry, WT RasGAP^232 with phosphopeptides
Type: binding
Procedure: We expressed and purified the region of RasGAP encompassing both SH2 domains with a construct that includes the N-SH2, SH3, and C-SH2 domains (residues 174–444, termed RasGAP^232 ([50])) (Figs. 1A and S2A). Separately, we synthesized peptides containing both phosphotyrosine residues for EphB4 and Dok1 (Fig. 1C). Our previous isothermal titration calorimetry (ITC) study assessed the affinity of RasGAP^232 for doubly phosphorylated p190RhoGAP-A peptide and found a Kd of 10 ± 6 nM for tandem engagement of both phosphotyrosines by both SH2 domains ([50]).
Synthetic peptides were purchased from GenScript and contain N-terminal acetylation and C-terminal amidation for stability. The doubly phosphorylated EphB4 peptide (UniProt ID P54760) used in ITC and SAXS experiments contains residues 586 to 602 (GTKV[pTyr]IDPFT[pTyr]EDPNEA). The singly phosphorylated EphB4 peptides pY590 and pY596 used in ITC experiments contain the residues 586 to 595 (GTKV[pTyr]IDPFT) and residues 592 to 602 (DPFT[pTyr]EDPNE), respectively. The p190RhoGAP peptide (UniProt ID Q9NRY4) used in SAXS experiments contains the residues 1083 to 1111 (SD[pTyr]AEPMDAVVKPRNEEENI[pTyr]SVPH). The Dok1 peptide (UniProt ID Q99704) used in ITC and SAXS experiments contains the residues 291 to 322 (SPPAL[pTyr]AEPLDSLRIAPCPSQDSL[pTyr]SDPLDST). Lyophilized peptides were reconstituted in water, and less soluble peptides (pYpYEphB4 and pY590) were spiked with 20 mM Tris pH 8 or 10 mM NaOH to increase solubility. Concentrations of stock peptides are as follows: pYpY190 stock concentration is 10 mM; pYpYEphB4 stock concentration is 2.5 mM; Dok1 stock concentration is 5.5 mM; pY596 stock concentration is 10 mM; and pY590 stock concentration is 8 mM.
Purified RasGAP^232 protein and solubilized peptides were dialyzed overnight against buffer containing 20 mM Tris pH 8, 250 mM NaCl in Slide-A-Lyzer 3 ml 10 kDa molecular weight cut off cassettes (Spectra-Por) and Micro Float-A-Lyzer 0.1 to 0.2 ml, 0.1 to […] molecular weight cut off devices (Spectra-Por), respectively. Protein and peptide concentrations were determined by A280 measured on a Nanodrop Lite (Thermo Fisher Scientific) instrument using extinction coefficients of 45,840 M^−1 cm^−1 for RasGAP^232 (and mutants), 917 M^−1 cm^−1 for the doubly phosphorylated EphB4 peptide, and 458.5 M^−1 cm^−1 for the singly phosphorylated EphB4 peptides as determined by ([74]). Dok1 peptide concentration was confirmed using Amino Acid Analysis performed at UC Davis Molecular Structure Facility. Samples were centrifuged for 10 min at 4 °C and degassed for 7 min using a Degassing Station (TA Instruments). ITC experiments were performed on a Nano ITC (TA Instruments) by loading protein into the 190 μl sample cell and titrating 20 times with 2.5 μl peptide in the titration syringe. Concentrations for sample cell and syringe for each trial are included in Table S1. The data were analyzed in NanoAnalyze software (TA Instrument) using blank (constant) and independent models (https://www.tainstruments.com/itcrun-dscrun-nanoanalyze-software/).

[1] = ITC, average of trials (Table S1)

affinity tighter than individual SH2–phosphotyrosine interactions (ITC Kd, compared with individual SH2 interactions (Table 1, ref [60])): 15- to 30 fold
Molecule: SD[pY]AEPMDAVVKPRNEEENI[pY]SVPH [pYpY p190RhoGAP-A, Doubly phosphorylated p190RhoGAP-A peptide (pY1087, pY1105)]

n (ITC stoichiometry, mean ± SD of trials): 0.8 ± 0.1 | Kd (ITC, 20 mM Tris pH 8, 250 mM NaCl, independent model, mean ± SD of trials (n = 4 EphB4, n = 3 Dok1)): 30 ± 20 nM | -T∆S [1]: 8.37 kcal/mol | Ka [1]: 40 µM⁻¹ | ∆G [1]: -10.3 kcal/mol | ΔH (ITC, mean ± SD of trials): -18.6 kcal/mol and -18.6 ± 0.72 kcal/mol | ΔS (ITC, mean ± SD of trials): -120 J/mol∗K and −120 ± 14 J/mol∗K | -T∆S (trial 1, ITC): 7.17 kcal/mol | Ka (trial 1, ITC): 63 µM⁻¹ | ∆G (trial 1, ITC): -10.5 kcal/mol | ∆H (trial 1, ITC): -17.9 kcal/mol | ∆S (trial 1, ITC): -102 J/mol*K | -T∆S (trial 2, ITC): 9.32 kcal/mol | Ka (trial 2, ITC): 21 µM⁻¹ | ∆G (trial 2, ITC): -10 kcal/mol | ∆H (trial 2, ITC): -19.4 kcal/mol | ∆S (trial 2, ITC): -131 J/mol*K | -T∆S (trial 3, ITC): 8.37 kcal/mol | Ka (trial 3, ITC): 43 µM⁻¹ | ∆G (trial 3, ITC): -10.5 kcal/mol | ∆H (trial 3, ITC): -18.6 kcal/mol | ∆S (trial 3, ITC): -116 J/mol*K
Molecule: CC[C@H](C)[C@H](NC(=O)[C@H](CCCNC(=N)N)NC(=O)[C@H](CC(C)C)NC(=O)[C@H](CO)NC(=O)[C@H](CC(=O)O)NC(=O)[C@H](CC(C)C)NC(=O)[C@@H]1CCCN1C(=O)[C@H](CCC(=O)O)NC(=O)[C@H](C)NC(=O)[C@H](Cc1ccc(OP(=O)(O)O)cc1)NC(=O)[C@H](CC(C)C)NC(=O)[C@H](C)NC(=O)[C@@H]1CCCN1C(=O)[C@@H]1CCCN1C(=O)[C@H](CO)NC(C)=O)C(=O)N[C@@H](C)C(=O)N1CCC[C@H]1C(=O)N[C@@H](CS)C(=O)N1CCC[C@H]1C(=O)N[C@@H](CO)C(=O)N[C@@H](CCC(N)=O)C(=O)N[C@@H](CC(=O)O)C(=O)N[C@@H](CO)C(=O)N[C@@H](CC(C)C)C(=O)N[C@@H](Cc1ccc(OP(=O)(O)O)cc1)C(=O)N[C@@H](CO)C(=O)N[C@@H](CC(=O)O)C(=O)N1CCC[C@H]1C(=O)N[C@@H](CC(C)C)C(=O)N[C@@H](CC(=O)O)C(=O)N[C@@H](CO)C(=O)N[C@H](C(N)=O)[C@@H](C)O [pYpY Dok1] (Ac-SPPAL[pY]AEPLDSLRIAPCPSQDSL[pY]SDPLDST-NH2)

From paper PMC10470053, “Diverse p120RasGAP interactions with doubly phosphorylated partners EphB4, p190RhoGAP, and Dok1” (The Journal of Biological Chemistry, 2023)
